System: vancomycin-resistant enterococcus (VRE VanA)
Assay: In vitro assay of antimicrobial activity: MIC by the microdilution method using cation adjusted Mueller-Hinton broth
Format: cell-based
Description: In Vitro Assay of Antimicrobial Activity
For several compounds of the invention, minimal inhibitory concentration (MIC) was determined by the microdilution method using cation adjusted Mueller-Hinton broth well known in the art.

[1] = E. faecalis SR7914 (VRE: Van A)

minimal inhibitory concentration (MIC) [1]	minimal inhibitory concentration (MIC) (E. faecium SR7917 (VRE: Van A))	SMILES
2	2	CNC(CC(C)C)C(=O)NC1C(=O)N[C@@H](CC(N)=O)C(=O)N[C@H]2C(=O)N[C@H]3C(=O)N[C@H](C(=O)N[C@@H](C(=O)O)c4cc(O)cc(O)c4-c4cc3ccc4O)C(O)c3ccc(c(Cl)c3)Oc3cc2cc(c3OC2OC(CO)[C@H](O)C(O)[C@H]2O[C@@H]2CC(C)(NCc3cccc(NC(=O)c4ccc(C)c(OCc5ccccc5)c4[N+](=O)[O-])c3)[C@@H](O)C(C)O2)Oc2ccc(cc2Cl)[C@H]1O (stereo partly drawn) [Compound 10]
4	4	CNC(CC(C)C)C(=O)NC1C(=O)N[C@@H](CC(N)=O)C(=O)N[C@H]2C(=O)N[C@H]3C(=O)N[C@H](C(=O)N[C@@H](C(=O)O)c4cc(O)cc(O)c4-c4cc3ccc4O)C(O)c3ccc(c(Cl)c3)Oc3cc2cc(c3OC2OC(CO)[C@H](O)C(O)[C@H]2O[C@@H]2CC(C)(NCc3ccc(OCCCNC(=O)c4ccc(C)c(OCc5ccccc5)c4[N+](=O)[O-])cc3)[C@@H](O)C(C)O2)Oc2ccc(cc2Cl)[C@H]1O (stereo partly drawn) [Compound 16]

SMILES	minimal inhibitory concentration (MIC) [1]	minimal inhibitory concentration (MIC) (E. faecium SR7917 (VRE: Van A))
CN[C@H](CC(C)C)C(=O)N[C@H]1C(=O)N[C@@H](CC(N)=O)C(=O)N[C@H]2C(=O)N[C@H]3C(=O)N[C@H](C(=O)N[C@H](C(=O)O)c4cc(O)cc(O)c4-c4cc3ccc4O)[C@H](O)c3ccc(c(Cl)c3)Oc3cc2cc(c3O[C@@H]2O[C@H](CO)[C@@H](O)[C@H](O)[C@H]2O[C@H]2C[C@](C)(N)[C@H](O)[C@H](C)O2)Oc2ccc(cc2Cl)[C@H]1O [VCM, vancomycin, reference compound]	>64	>64
